Experiments:
Type in all cases: in vivo
[1] = test system: cattle ticks (Boophilus microplus) Parkhurst strain, SP-resistant; test: Boophilus microplus dip test; details: application rate 100 ppm, assessed after 7 days by laying of fertile eggs
Experimental: Boophilus microplus—Dip Test
Test animals: cattle ticks (Boophilus microplus) Parkhurst strain, SP-resistant
(§1) Solvent: dimethyl sulfoxide
10 mg of active ingredient are dissolved in 0.5 ml of dimethyl sulfoxide. To produce a suitable formulation, the active ingredient solution is diluted with water to the concentration desired in each case. This active ingredient formulation is pipetted into tubes. 8-10 engorged adult female cattle ticks (Boophilus microplus) are transferred into a further tube with holes. The tube is immersed into the active ingredient formulation, and all the ticks are completely wetted. After the liquid has run out, the ticks are transferred on filter discs into plastic dishes and stored in a climate-controlled room.
Efficacy is assessed after 7 days by laying of fertile eggs. Eggs which are not visibly fertile are stored in a climate-controlled cabinet until the larvae hatch after about 42 days. An efficacy of 100% means that none of the ticks has laid any fertile eggs; 0% means that all the eggs are fertile.

Ctenocephalides felis = Ctenocephalides felis in vitro contact test with adult cat fleas; details: application rate 5 μg/cm^2 (=500 g/ha), after 48 h, adult cat fleas dead or moribund
Experimental: Ctenocephalides felis—In Vitro Contact Tests with Adult Cat Fleas
For the coating of the test tubes, 9 mg of active ingredient are first dissolved in 1 ml of acetone p.a. and then diluted to the desired concentration with acetone p.a. 250 μl of the solution are distributed homogeneously on the inner walls and the base of a 25 ml glass tube by turning and rocking on an orbital shaker (rocking rotation at 30 rpm for 2 h). With 900 ppm of active ingredient solution and internal surface area 44.7 cm^2, given homogeneous distribution, an area-based dose of 5 μg/cm^2 is achieved.
After the solvent has evaporated off, the tubes are populated with 5-10 adult cat fleas (Ctenocephalides felis), sealed with a perforated plastic lid and incubated in a horizontal position at room temperature and ambient humidity. After 48 h, efficacy is determined. To this end, the tubes are stood upright and the fleas are knocked to the base of the tube. Fleas which remain motionless at the base or move in an uncoordinated manner are considered to be dead or moribund.
100% efficacy means that all the fleas were dead or moribund. 0% efficacy means that no fleas were harmed.

Spodoptera frugiperda = Spodoptera frugiperda spray test (SPODFR)
Experimental: Spodoptera frugiperda—Spray Test
(§2) To produce a suitable active ingredient formulation, 1 part by weight of active ingredient is dissolved with the specified parts by weight of solvent and made up to the desired concentration with water containing an emulsifier concentration of 1000 ppm. To produce further test concentrations, the formulation is diluted with emulsifier-containing water.
Leaf discs of maize (Zea mays) are sprayed with an active ingredient formulation of the desired concentration and, after drying, populated with caterpillars of the armyworm (Spodoptera frugiperda).
After 7 days, the efficacy in % is determined. 100% means that all the caterpillars have been killed; 0% means that no caterpillar has been killed.
Spodoptera frugiperda—Spray Test (SPODFR)
as §2, with “compound” for “ingredient”
Leaf discs of maize (Zea mays) are sprayed with an active compound formulation of the desired concentration and, after drying, populated with caterpillars of the armyworm (Spodoptera frugiperda).
After the desired time, the efficacy in % is determined. 100% means that all the caterpillars have been killed; 0% means that no caterpillar has been killed.

Myzus persicae = Myzus persicae spray test (MYZUPE); details: for efficacy: application rate 100 g/ha, spray, after 5 days
Experimental: Myzus persicae—Spray Test
as §2
Discs of Chinese cabbage leaves (Brassica pekinensis) infested by all stages of the green peach aphid (Myzus persicae) are sprayed with an active compound preparation of the desired concentration.
After 5 days, the efficacy in % is determined. 100% means that all the aphids have been killed; 0% means that no aphids have been killed.
Myzus Persicae—Spray Test (MYZUPE)
as §2, with “compound” for “ingredient”
Discs of Chinese cabbage leaves (Brassica pekinensis) infested with all stages of the green peach aphid (Myzus persicae) are sprayed with an active compound formulation of the desired concentration.
After the desired time, the efficacy in % is determined. 100% means that all the aphids have been killed; 0% means that no aphids have been killed.

Musca domestica = Musca domestica test; details: application rate 100 ppm, adult houseflies, after 2 days
Experimental: as §1
(§3) To produce a suitable active ingredient formulation, 10 mg of active ingredient are mixed with 0.5 ml of dimethyl sulfoxide, and the concentrate is diluted with water to the desired concentration.
Vessels containing a sponge treated with sugar solution and the active ingredient formulation of the desired concentration are populated with 10 adult houseflies (Musca domestica).
After 2 days, the rate of extermination in % is determined. 100% means that all of the flies have been killed; 0% means that none of the flies have been killed.

Lucilia cuprina = Lucilia cuprina test; details: application rate 100 ppm, L1 larvae, after 2 days
Experimental: as §1, §3
About 20 L1 larvae of the Australian sheep blowfly (Lucilia cuprina) are transferred into a test vessel containing minced horsemeat and the active compound preparation of the desired concentration.
After 2 days, the rate of extermination in % is determined. 100% means that all the larvae have been killed; 0% means that no larvae have been killed.

Tetranychus urticae = Tetranychus urticae spray test, OP-resistant (TETRUR); details: for efficacy: spray, after 6 days
Experimental: Tetranychus urticae—Spray Test, OP-Resistant
as §2
Discs of bean leaves (Phaseolus vulgaris) infested with all stages of the greenhouse red spider mite (Tetranychus urticae) are sprayed with an active compound preparation of the desired concentration.
After 6 days, the efficacy in % is determined. 100% means that all the spider mites have been killed; 0% means that no spider mites have been killed.
Tetranychus urticae—Spray Test; OP-Resistant (TETRUR)
as §2, with “compound” for “ingredient”
Discs of bean leaves (Phaseolus vulgaris) infested with all stages of the greenhouse red spider mite (Tetranychus urticae) are sprayed with an active compound formulation of the desired concentration.
After the desired time, the efficacy in % is determined. 100% means that all the spider mites have been killed; 0% means that no spider mites have been killed.

Phaedon cochleariae = Phaedon cochleariae spray test (PHAECO)
Experimental: Phaedon cochleariae—Spray Test
as §2
After 7 days, the efficacy in % is determined. 100% means that all the beetle larvae have been killed; 0% means that no beetle larvae have been killed.
Phaedon cochleariae—Spray Test (PHAECO)
as §2, with “compound” for “ingredient”
Discs of Chinese cabbage leaves (Brassica pekinensis) are sprayed with an active compound formulation of the desired concentration and, after drying, populated with larvae of the mustard beetle (Phaedon cochleariae).
After the desired time, the efficacy in % is determined. 100% means that all the beetle larvae have been killed; 0% means that no beetle larvae have been killed.

[2] = application rate 100 g/ha, spray, after 7 days

O=C(NC1CC1)c1cc(-c2cnn(-c3c(Cl)cc(C(F)(C(F)(F)F)C(F)(F)F)cc3Cl)c2)sc1Br [I-T1-1]
efficacy [1]: 100% | efficacy (Ctenocephalides felis): 100% | Emax at 100 g/ha (Spodoptera frugiperda; Spodoptera frugiperda, 168 h, SPODFR, 100 g ai/ha, 7 dat, read-out: % efficacy dat): 100% | pest or weed control at 100 g/ha (Spodoptera frugiperda; Spodoptera frugiperda, 168 h, application rate 100 g/ha, spray, after 7 days, read-out: efficacy): 100% | Emax at 100 g/ha (Myzus persicae; Myzus persicae, 120 h, MYZUPE, 100 g ai/ha, 5 dat, read-out: % efficacy dat): 100% | efficacy (Myzus persicae): 100% | efficacy (rate of extermination) (Musca domestica): 100% | efficacy (rate of extermination) (Lucilia cuprina): 100% | Emax at 100 g/ha (Tetranychus urticae; Tetranychus urticae, 144 h, TETRUR, 100 g ai/ha, 6 dat, read-out: % efficacy dat): 70% | efficacy (Tetranychus urticae; application rate 20 g/ha): 100% | Emax at 100 g/ha (Phaedon cochleariae; Phaedon cochleariae, 168 h, PHAECO, 100 g ai/ha, 7 dat, read-out: % efficacy dat): 100% | pest or weed control at 100 g/ha (Phaedon cochleariae; Phaedon cochleariae, 168 h, application rate 100 g/ha, spray, after 7 days, read-out: efficacy): 100%

Cc1sc(-c2cnn(-c3c(Cl)cc(C(F)(C(F)(F)F)C(F)(F)F)cc3Cl)c2)cc1C(=O)NC1CC1 [I-T1-11]
efficacy [1]: 100% | efficacy (Ctenocephalides felis): 100% | efficacy (Spodoptera frugiperda; [2]): 100% | efficacy (Myzus persicae): 90% | efficacy (rate of extermination) (Musca domestica): 100% | efficacy (rate of extermination) (Lucilia cuprina): 100% | efficacy (Tetranychus urticae; application rate 20 g/ha): 100% | efficacy (Tetranychus urticae; application rate 100 g/ha): 100% | efficacy (Phaedon cochleariae; [2]): 100%

Reference: US11825838B2, “Tricyclic carboxamides for controlling arthropods” (Bayer CropScience Aktiengesellschaft, priority 2017, dated 2023)
